Test results as given in US10407465B2, “Peptides enhancing neuronal outgrowth and application thereof” (Schweitzer Biotech Company Ltd., priority 2014, dated 2019).
Structures can show the parent of a compound that is named as a salt. No end group written: not given here.

Columns and labels:
[1] = system: D-Galactose induced aging model rats; experiment: Water maze learning, D-galactose induced aging; assay type: in vivo, Sprague-Dawley rats; settings: D-galactose 150 mg/kg/day i.p. alone for 9 weeks
Protocol: (§1) A plastic circular pool 183 cm in diameter was filled with water (25±2° C.). A circular platform was placed at a specific location from the edge of the pool and submerged below the water surface. Water was made cloudy by adding toxic-free dye. Distinctive visual cues were set on the wall. For spatial learning, animals were subjected to 3 trials per day, with one trial early in the morning, one trial at noon, and another in the late afternoon. The training procedure lasted 4 days, and a total of 12 trials were given. The rats were positioned at different starting points spaced equally around the perimeter of the pool in random order. They had 60 seconds to swim in the pool. If a rat could not find the platform, it was guided to the platform and was allowed to remain there for 20 seconds. The time each animal took to reach the platform was recorded as the escape latency. A probe trial of 60 seconds was given on Day 5 to test their memory retention. The rats were placed in the pool with the platform removed, and the time they spent in each quadrant (Quadrants 1, 2, 3, and 4) was recorded. The longer a rat stayed in the target quadrant (quadrant 4), the better memory the rat had. At the end of the experiment, the rats were subjected to visible platform learning. […] The time the rats found the platform was recorded. […]

[2] = system: MPTP-mouse model of Parkinson's disease; experiment: Rotarod performance test; assay type: in vivo, C57BL/6 male mice; settings: MPTP 30 mg/kg i.p. alone; negative control 778.5 seconds; p<0.01
Protocol: C57BL/6 male mice at the age of 5 weeks were randomly divided into 3 groups and intraperitoneally injected with PBS (negative control), MPTP (30 mg/kg)(MPTP group), and C6 peptide (10.7 μg/kg) and MPTP (30 mg/kg)(C6+MPTP group), respectively. The injection volume was calculated based on the body weight of each mouse everyday. Mice of the C6+MPTP group were injected C6 peptide for 3 weeks prior to injection of C6 peptide and MPTP for 1 week, and then subjected to rotarod performance test.
Rotarod performance tests were conducted to measure the coordination of mice. Mice were placed on the rod and ran at 2 rpm constant speed for 2 minutes in order to adapt to the rod. After that, rod was started to accelerate to 20 rpm (within 5 minutes) and sustained for 15 minutes. The time (latency) at which each mouse fell off the rod was recorded.

[3] = system: Sco-induced amnesia animal model; experiment: Water maze learning, scopolamine-induced memory impairment; assay type: in vivo, Sprague-Dawley rats; settings: scopolamine 1.5 mg/kg/day i.p. alone; vs negative control; P<0.01
Protocol: as §1

[4] = system: Sco-induced amnesia animal model; experiment: Step-down passive avoidance test, scopolamine-induced memory deficits; assay type: in vivo, Sprague-Dawley rats; settings: scopolamine 1.5 mg/kg/day alone; 1 day after footshock; vs control
Protocol: Animals were familiar to the instrument 24 hours before training. Next day rats placed on the elevated platform situated in the center of the floor of the passive avoidance test box and the latency to stepping down recorded. On the third day of the experiment immediately after stepping down, animals received mild electric shock (3V, 3 seconds duration, D.C.) through the grid floor and then returned to their home cages. On the following day (as 24 hours retention interval) rats placed on the platform again while no electric shock was given to them. Latency to step down recorded. If the rat remained on the platform for the 5 minutes, it assigned a maximum score of 300 seconds.
Rats were randomly divided into negative control group, Scopolamine only group, (C5+Sco) group and (C6+Sco) group, and rats in the four groups were injected with vehicle (negative control group and scopolamine only group), C5 peptide (54 μg/kg/day, C5+Sco group), and C6 peptide (5.4 μg/kg/day, C6+Sco group), respectively, for 14 consecutive days. After that, rats in the 4 groups were intraperitoneally injected with vehicle (negative control group), vehicle and scopolamine (1.5 mg/kg/day)(scopolamine only group), C5 peptide (54 μg/kg/day) and scopolamine (1.5 mg/kg/day) (C5+Sco group), and C6 peptide (5.4 μg/kg/day) and scopolamine (1.5 mg/kg/day) (C6+Sco group), respectively, for 7 consecutive days. […]

[5] = system: Sco-induced amnesia animal model; experiment: Novel object recognition learning, scopolamine-induced memory deficits; assay type: in vivo, Sprague-Dawley rats; settings: scopolamine 1.5 mg/kg/day alone; vs time on left object; P>0.05
Protocol: During familiarization, rats were allowed to explore 2 identical objects in an open field box (90×70×60 cm) for 5 min. The criteria used for exploration were a distance less than 1.5 cm between the rat and the object or direct contact with the object. During the retention test given 3 hours and 24 hours later, the rats were returned to the same box, but one of the familiar objects was replaced with a novel object of approximately the same size. The time that each rat spent exploring the 2 objects during a 5-min period was recorded. The rats placed in the open field box without any objects for 5 min were assigned to the non-trained group.
Both C5 peptide and C6 peptide ameliorate scopolamine-induced memory deficits. […] Then, behavioral experiments were conducted, and the injection program with scopolamine continued through the experimentation. The injection volume was 1 μL/g of body weight. The scopolamine injection was performed 30 minutes before behavioral experiments every morning, and the C5 peptide or C6 peptide injection was conducted once daily at 5:00 PM 1 day prior. […] Three (3) hours, 8 hours and 24 hours after, a novel object (NO) replaced the RO.

[6] = system: embryonic hippocampal primary neurons; experiment: Cell viability (MTT) assay for neurotoxicity; assay type: cell-based, Sprague-Dawley rats; settings: 10^−3 M, 10^−6 M, 10^−9 M, 10^−12M for 24 hours from 1 DIV; p>0.05
Protocol: At the first day in vitro (1 DIV), embryonic hippocampal primary neurons were treated with 10^−3 M, 10^−6 M, 10^−9 M, 10^−12M C5 peptide or C6 peptide, respectively, for 24 hours, followed by cell viability assay.
Cell viability was evaluated by an MTT (3-(4,5-cimethylthiazol-2-yl)-2,5-diphenyl tetrazolium bromide) assay. Cells were incubated with an MTT reagent (0.5 mg/mL, Sigma-Aldrich, USA) at 37° C. for 1 hour. The MTT solution was removed, and DMSO was added to the wells shaken at room temperature for 1 hour. The amount of MTT formazan product was quantified by measuring its absorbance at 570 and 630 nm by using an ELISA plate reader (SpectraMax M2 Microplate Readers, Molecular Devices, Sunnyvale, Calif., USA).

[7] = system: embryonic hippocampal primary neurons; experiment: Neuronal outgrowth assay with immunocytochemistry (anti-Tau, anti-MAP2, DAPI); assay type: cell-based, Sprague-Dawley rats; settings: for lengths of the first and second order axon branches: p<0.01 or p<0.05; for axon outgrowth: L-form peptide 10^−9 M, treatment at 3 DIV for 3 days, vs PBS negative control
Protocol: In order to culture embryonic hippocampal primary neurons, pregnant Sprague-Dawley rats were purchased from the National Laboratory Center in Taiwan (Taipei, Taiwan). The hippocampal tissue from the embryos of the Sprague-Dawley rats (embryonic day 19, E19) was dissociated with enzyme and plated onto poly-L-lysine-coated coverslips with a minimal essential medium containing 5% calf serum, 5% horse serum, and 50 ng/mL insulin-transferrin-selenite (Sigma-Aldrich, St. Louis, Mo., USA). After plating, the medium was replaced with 2% of B27-neurobasal medium (Invitrogen, Carlsbad, Calif., USA) containing 0.5 mM glutamine and […]. Embryonic hippocampal primary neurons were incubated at 37° C., 5% CO2 for further experimental treatment.
Primary hippocampal neuron cultures at 3 days in vitro (at DIV3) were treated with 10^−9 M, 10^−12M, 10^−15 M C5 peptide (L-form), 10^−9 M, 10^−12M, 10^−15 M C6 peptide (L-form), 10^−9 M P1 peptide (L-form), 10^−9 M P2 peptide (L-form), 10^−9 M P3 peptide (L-form), 10^−9 M P4 peptide (L-form), 10^−9 M P5 peptide (L-form), 10^−9 M P6 peptide (L-form), 10^−9 M C5 peptide (D-form), and 10^−12 C6 peptide (D-form), respectively, for 3 days, followed by immunocytochemistry. Embryonic hippocampal primary neurons of negative control were treated with PBS. Each treatment condition was run in 3 replicates.
Cultured hippocampal neurons were fixed with 4% paraformaldehyde and permeablized with 0.1% Triton X-100 at room temperature (RT). Cultures were then incubated in the primary rabbit anti-Tau antibody (a selective marker for axons, Millipore, Mass., USA) and the primary mouse anti-MAP2 antibody (microtubule-associated protein-2, which is a selective marker for dendrites, Millipore) for 1 hour at RT. After wash, cells were incubated with Alexa Fluor® 488 goat anti-rabbit secondary antibody (green fluorescence, Abcam Plc., UK) and Alexa Fluor® 594 goat anti-mouse secondary antibody (red fluorescence, Abcam Plc.) for 1 hour at RT. Then, nuclei were stained with 4′,6-diamidino-2-phenylindole (DAPI, blue fluorescence, Vector Laboratories, USA). After that, coverslips were mounted on the cells, and images were obtained by using an Axio Observer D1 microscope (Zeiss, Jena, Germany) and analyzed by ImageJ software (Inage Processing and Analysis in Java, National Institutes of Health, USA). Neuronal process longer than 10 μm is defined as a neurite.
An axon extending from the cell body of a neuron is defined as a first order axon branch; an axon extending from a first order axon branch is defined as a second order axon branch, and an axon extending from a second order axon branch is defined as a third order axon branch, et cetera (FIG. 3A). Only axons longer than 10 μm are counted.

## O=C[C@H](O)[C@@H](O)[C@@H](O)[C@H](O)CO [D-Galactose, D-(+)-galactose]
[1]
  average escape latency in finding the hidden platform: 53.06 s

## CN1CC=C(c2ccccc2)CC1 [MPTP, 1-methyl-4-phenyl-1,2,3,6-tetrahydropyridine]
[2]
  average latency to fall: 159.8 s

## CN1[C@@H]2C[C@@H](OC(=O)[C@H](CO)c3ccccc3)C[C@H]1[C@@H]1O[C@@H]12 [Sco, Scopolamine hydrochloride]
[3]
  escape latency in finding the hidden platform: longer escape latency
[4]
  stepping down (jumping error number): stepped down more
[5]
  exploratory preference for the novel object (NO): no exploratory preference for the NO

## NAIPQ [C5 peptide, NAIPQ]
[6]
  neurotoxic effect (cell viability, MTT): no significant neurotoxic effect

## NFEPQ (Petide for enhancing neuronal outgrowth) [P1 peptide]
[7]; 10^−9 M, vs negative control
  lengths of the first and second order axon branches: longer
[7]
  axon outgrowth: enhanced axon outgrowth

## NIKPQ (Petide for enhancing neuronal outgrowth) [P3 peptide]
[7]; 10^−9 M, vs negative control
  lengths of the first and second order axon branches: longer
[7]
  axon outgrowth: enhanced axon outgrowth

## NLMPQ (Petide for enhancing neuronal outgrowth) [P4 peptide]
[7]; 10^−9 M, vs negative control
  lengths of the first and second order axon branches: longer
[7]
  axon outgrowth: enhanced axon outgrowth

## NMYPQ (Petide for enhancing neuronal outgrowth) [P2 peptide]
[7]; 10^−9 M, vs negative control
  lengths of the first and second order axon branches: longer
[7]
  axon outgrowth: enhanced axon outgrowth

## NPSPQ [C6 peptide, NPSPQ]
[6]
  neurotoxic effect (cell viability, MTT): no significant neurotoxic effect

## NVAPQ (Petide for enhancing neuronal outgrowth) [P5 peptide]
[7]; 10^−9 M, vs negative control
  lengths of the first and second order axon branches: longer
[7]
  axon outgrowth: enhanced axon outgrowth

## NWLPQ (Petide for enhancing neuronal outgrowth) [P6 peptide]
[7]; 10^−9 M, negative control 2.5, p<0.01
  average number of second order axon branches: 4.2
[7]; 10^−9 M, vs negative control
  lengths of the first and second order axon branches: longer
[7]; 10^−9 M, vs negative control, p<0.05
  lengths of the third order axon branches: significantly longer
[7]
  axon outgrowth: enhanced axon outgrowth
